*1 amine or outer side, *2 acyl side, *3 side chain or, on linkers, in order; H or OH if unused. Where a SMILES comes first, the peptide text is derived from it. Bridges are numbered along the chain shown (N, C = ends). [ ]: non-standard residue; d: D form. The star is where a group is joined. X5 = NC(=O)[C@H](CCCCNC(=O)CN1CCN(CC(=O)O)CCN(CC(=O)O)CCN(CC(=O)O)CC1)NC(=O)CCC(=O)NCCCOCCOCCOCCCN*; X3 = O=C(O)CN1CCN(CC(=O)O)CCN(CC(=O)NCCCOCCOCCOCCCN*)CCN(CC(=O)O)CC1; DOTA = O=C(O)CN1CCN(CC(=O)O)CCN(CC(=O)*)CCN(CC(=O)O)CC1; Trp(5-Br) = N[C@@H](Cc1c[nH]c2ccc(Br)cc12)C(=O)O; Trp(5-Cl) = N[C@@H](Cc1c[nH]c2ccc(Cl)cc12)C(=O)O; Pyridine(2,6-diCH2) = c1cc(C[*:1])nc(C[*:2])c1; Trp(6-F) = N[C@@H](Cc1c[nH]c2cc(F)ccc12)C(=O)O; Pro(4R-NH2) = N[C@H]1CN[C@H](C(=O)O)C1; Pro(3S-OH) = O=C(O)[C@H]1NCC[C@@H]1O; mXylylene = c1cc(C[*:1])cc(C[*:2])c1; X7 = c1cc(CSCCN[*:2])cc(C[*:1])c1; Hyp = O=C(O)[C@@H]1C[C@@H](O)CN1; NMeD = CN[C@@H](CC(=O)O)C(=O)O; Suc = O=C(CCC(=O)[*:2])[*:1]; hLeu = CC(C)CC[C@H](N)C(=O)O; αMeS = C[C@](N)(CO)C(=O)O; Api = NC1(C(=O)O)CCNCC1; Thp = NC1(C(=O)O)CCOCC1; Aib = CC(C)(N)C(=O)O; Sar = CNCC(=O)O
Target: T1, GIPR (CHO-K1-hGIPR cells) (Homo sapiens, UniProt P48546)
T1 construct: host or cells: CHO-K1
T1 sequence (P48546 22-466): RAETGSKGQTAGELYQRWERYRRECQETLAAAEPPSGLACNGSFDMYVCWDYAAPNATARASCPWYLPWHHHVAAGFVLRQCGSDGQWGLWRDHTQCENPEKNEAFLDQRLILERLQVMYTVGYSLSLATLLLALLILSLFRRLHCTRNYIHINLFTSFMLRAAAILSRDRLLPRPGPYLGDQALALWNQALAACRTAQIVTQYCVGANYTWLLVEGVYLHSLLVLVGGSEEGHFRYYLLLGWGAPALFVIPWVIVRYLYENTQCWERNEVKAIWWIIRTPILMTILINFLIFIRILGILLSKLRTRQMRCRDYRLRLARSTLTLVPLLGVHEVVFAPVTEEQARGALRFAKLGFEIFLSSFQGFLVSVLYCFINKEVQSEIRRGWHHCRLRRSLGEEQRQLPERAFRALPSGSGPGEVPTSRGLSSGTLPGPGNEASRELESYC
Test: FACS binding assay
Conditions: competition with 20 nM GIP-057, 4° C., 1 hour, read-out: pIC50 Category (converted)
How it was run: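 Read-out: flow cytometric median fluorescence intensity, APC/Cy5 channel, plotted vs peptide conc.; 4PL fit → EC50/pEC50 or IC50/pIC50. Cells: CHO-K1-hGIPR, Accutase-detached, 500.000/mL in PBS + 1% FCS. Detection: APC-streptavidin 1 μg/mL, 30 min, on ice.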

Structure (SMILES) | IC50 [nM]
CC[C@H](C)[C@@H]1NC(=O)[C@H](CCC(C)C)NC(=O)C(C)(C)NC(=O)[C@@H](NC(=O)[C@@H](CC(C)C)NC(=O)[C@H](CCC(=O)O)NC(=O)[C@@H]2CCCN2C(=O)[C@H](Cc2c[nH]c3ccc(Cl)cc23)NC(=O)[C@H](Cc2c[nH]c3ccccc23)NC(=O)[C@H](CC(=O)O)NC(=O)CCC(=O)NCCCOCCOCCOCCCNC(=O)CN2CCN(CC(=O)O)CCN(CC(=O)O)CCN(CC(=O)O)CC2)CSCc2cccc(c2)CSCCNC1=O [GIP-099, DOTA-Ttds-Asp-Trp-5Clw-Pro-Glu-leu-[Cys(3MeBn)-Aib-Hle-Ile-AET]] ({X3-Suc}-DW[Trp(5-Cl)]PE[dL]C[Aib][hLeu]I; linker 7-C via X7) | < 10
CC[C@H](C)[C@@H]1NC(=O)[C@H](CC(C)C)NC(=O)C(C)(C)NC(=O)[C@@H](NC(=O)[C@@H](CC(C)C)NC(=O)[C@H](CCC(=O)O)NC(=O)CN(C)C(=O)[C@H](Cc2c[nH]c3ccc(Cl)cc23)NC(=O)[C@H](Cc2c[nH]c3ccccc23)NC(=O)[C@H](CC(=O)O)NC(=O)CCC(=O)NCCCOCCOCCOCCCNC(=O)CN2CCN(CC(=O)O)CCN(CC(=O)O)CCN(CC(=O)O)CC2)CSCc2cccc(c2)CSCCNC1=O [GIP-100, DOTA-Ttds-Asp-Trp-5Clw-Nmg-Glu-leu-[Cys(3MeBn)-Aib-Leu-Ile-AET]] ({X3-Suc}-DW[Trp(5-Cl)][Sar]E[dL]C[Aib]LI; linker 7-C via X7) | < 10
CC[C@H](C)[C@@H]1NC(=O)[C@H](CC(C)C)NC(=O)[C@](C)(CO)NC(=O)[C@@H](NC(=O)[C@@H](CC(C)C)NC(=O)[C@H](CCC(=O)O)NC(=O)[C@@H]2CCCN2C(=O)[C@H](Cc2c[nH]c3ccc(Cl)cc23)NC(=O)[C@H](Cc2c[nH]c3ccccc23)NC(=O)[C@H](CC(=O)O)NC(=O)CCC(=O)NCCCOCCOCCOCCCNC(=O)CN2CCN(CC(=O)O)CCN(CC(=O)O)CCN(CC(=O)O)CC2)CSCc2cccc(c2)CSCCNC1=O [GIP-101, DOTA-Ttds-Asp-Trp-5Clw-Pro-Glu-leu-[Cys(3MeBn)-Ams-Leu-Ile-AET]] ({X3-Suc}-DW[Trp(5-Cl)]PE[dL]C[αMeS]LI; linker 7-C via X7) | < 10
CC[C@H](C)[C@@H]1NC(=O)[C@H](CC(C)C)NC(=O)C(C)(C)NC(=O)[C@@H](NC(=O)[C@@H](CC(C)C)NC(=O)[C@H](CCC(=O)O)NC(=O)[C@@H]2[C@@H](O)CCN2C(=O)[C@H](Cc2c[nH]c3ccc(Cl)cc23)NC(=O)[C@H](Cc2c[nH]c3ccccc23)NC(=O)[C@H](CC(=O)O)NC(=O)CCC(=O)NCCCOCCOCCOCCCNC(=O)CN2CCN(CC(=O)O)CCN(CC(=O)O)CCN(CC(=O)O)CC2)CSCc2cccc(c2)CSCCNC1=O [GIP-102, DOTA-Ttds-Asp-Trp-5Clw-H3p-Glu-leu-[Cys(3MeBn)-Aib-Leu-Ile-AET]] ({X3-Suc}-DW[Trp(5-Cl)][Pro(3S-OH)]E[dL]C[Aib]LI; linker 7-C via X7) | < 10
CC[C@H](C)[C@@H]1NC(=O)[C@H](CC(C)C)NC(=O)C(C)(C)NC(=O)[C@@H](NC(=O)[C@@H](CC(C)C)NC(=O)[C@H](CCC(=O)O)NC(=O)[C@@H]2CCCN2C(=O)[C@H](Cc2c[nH]c3ccc(Cl)cc23)NC(=O)[C@H](Cc2c[nH]c3cc(F)ccc23)NC(=O)[C@H](CC(=O)O)NC(=O)CCC(=O)NCCCOCCOCCOCCCNC(=O)CN2CCN(CC(=O)O)CCN(CC(=O)O)CCN(CC(=O)O)CC2)CSCc2cccc(c2)CSCCNC1=O [GIP-104, DOTA-Ttds-Asp-6Fw-5Clw-Pro-Glu-leu-[Cys(3MeBn)-Aib-Leu-Ile-AET]] ({X3-Suc}-D[Trp(6-F)][Trp(5-Cl)]PE[dL]C[Aib]LI; linker 7-C via X7) | < 10
CC[C@H](C)[C@@H]1NC(=O)[C@H](CC(C)C)NC(=O)C(C)(C)NC(=O)[C@@H](NC(=O)[C@@H](CC(C)C)NC(=O)[C@H](CCC(=O)O)NC(=O)[C@@H]2CCCN2C(=O)[C@H](Cc2c[nH]c3ccc(Br)cc23)NC(=O)[C@H](Cc2c[nH]c3cc(F)ccc23)NC(=O)[C@H](CC(=O)O)NC(=O)CCC(=O)NCCCOCCOCCOCCCNC(=O)CN2CCN(CC(=O)O)CCN(CC(=O)O)CCN(CC(=O)O)CC2)CSCc2cccc(c2)CSCCNC1=O [GIP-105, DOTA-Ttds-Asp-6Fw-5Brw-Pro-Glu-leu-[Cys(3MeBn)-Aib-Leu-Ile-AET]] ({X3-Suc}-D[Trp(6-F)][Trp(5-Br)]PE[dL]C[Aib]LI; linker 7-C via X7) | < 10
CC[C@H](C)[C@@H]1NC(=O)[C@H](CC(C)C)NC(=O)C2(CCOCC2)NC(=O)[C@@H](NC(=O)[C@@H](CC(C)C)NC(=O)[C@H](CCC(=O)O)NC(=O)[C@@H]2C[C@@H](O)CN2C(=O)[C@H](Cc2c[nH]c3ccc(Cl)cc23)NC(=O)[C@H](Cc2c[nH]c3ccccc23)NC(=O)CCC(=O)O)CSCc2cccc(n2)CSC[C@@H](C(=O)N[C@@H](CCCCNC(=O)CN2CCN(CC(=O)O)CCN(CC(=O)O)CCN(CC(=O)O)CC2)C(N)=O)NC1=O [GIP-115, HO-Succinyl-Trp-5Clw-Hyp-Glu-leu-[Cys(2Lut)-Thp-Leu-Ile-Cys]-Lys(DOTA)-NH2] (Suc-W[Trp(5-Cl)][Hyp]E[dL]C[Thp]LICK(DOTA)-NH2; linker 6-10 via Pyridine(2,6-diCH2)) | < 10
CC[C@H](C)[C@@H]1NC(=O)[C@H](CC(C)C)NC(=O)C2(CCOCC2)NC(=O)[C@@H](NC(=O)[C@@H](CC(C)C)NC(=O)[C@H](CCC(=O)O)NC(=O)[C@@H]2C[C@@H](O)CN2C(=O)[C@H](Cc2c[nH]c3ccc(Cl)cc23)NC(=O)[C@H](Cc2c[nH]c3ccccc23)NC(=O)CCC(=O)O)CSCc2cccc(n2)CSC[C@@H](C(=O)N[C@H](CCCCNC(=O)CN2CCN(CC(=O)O)CCN(CC(=O)O)CCN(CC(=O)O)CC2)C(N)=O)NC1=O [GIP-116, HO-Succinyl-Trp-5Clw-Hyp-Glu-leu-[Cys(2Lut)-Thp-Leu-Ile-Cys]-lys(DOTA)-NH2] (Suc-W[Trp(5-Cl)][Hyp]E[dL]C[Thp]LIC[dK](DOTA)-NH2; linker 6-10 via Pyridine(2,6-diCH2)) | < 10
CC[C@H](C)[C@@H]1NC(=O)[C@H](CC(C)C)NC(=O)C2(CCN(C(=O)CN3CCN(CC(=O)O)CCN(CC(=O)O)CCN(CC(=O)O)CC3)CC2)NC(=O)[C@@H](NC(=O)[C@@H](CC(C)C)NC(=O)[C@H](CCC(=O)O)NC(=O)[C@@H]2C[C@@H](O)CN2C(=O)[C@H](Cc2c[nH]c3ccc(Cl)cc23)NC(=O)[C@H](Cc2c[nH]c3ccccc23)NC(=O)[C@H](CC(=O)O)NC(C)=O)CSCc2cccc(n2)CSC[C@@H](C(N)=O)NC1=O [GIP-122, Ac-Asp-Trp-5Clw-Hyp-Glu-leu-[Cys(2Lut)-Apc(DOTA)-Leu-Ile-Cys]-NH2] (Ac-DW[Trp(5-Cl)][Hyp]E[dL]C[Api](DOTA)LIC-NH2; linker 7-11 via Pyridine(2,6-diCH2)) | < 10
CC[C@H](C)[C@@H]1NC(=O)[C@H](CC(C)C)NC(=O)C2(CCN(C(=O)CN3CCN(CC(=O)O)CCN(CC(=O)O)CCN(CC(=O)O)CC3)CC2)NC(=O)[C@@H](NC(=O)[C@@H](CC(C)C)NC(=O)[C@H](CCC(=O)O)NC(=O)[C@@H]2C[C@@H](N)CN2C(=O)[C@H](Cc2c[nH]c3ccc(Cl)cc23)NC(=O)[C@H](Cc2c[nH]c3ccccc23)NC(=O)[C@H](CC(=O)O)NC(C)=O)CSCc2cccc(n2)CSC[C@@H](C(N)=O)NC1=O [GIP-123, Ac-Asp-Trp-5Clw-Tap-Glu-leu-[Cys(2Lut)-Apc(DOTA)-Leu-Ile-Cys]-NH2] (Ac-DW[Trp(5-Cl)][Pro(4R-NH2)]E[dL]C[Api](DOTA)LIC-NH2; linker 7-11 via Pyridine(2,6-diCH2)) | < 10
CC[C@H](C)[C@@H]1NC(=O)[C@H](CC(C)C)NC(=O)C2(CCOCC2)NC(=O)[C@@H](NC(=O)[C@@H](CC(C)C)NC(=O)[C@H](CCC(=O)O)NC(=O)[C@@H]2C[C@@H](O)CN2C(=O)[C@H](Cc2c[nH]c3ccc(Cl)cc23)NC(=O)[C@H](Cc2c[nH]c3ccccc23)NC(=O)[C@H](CC(=O)O)NC(=O)CN2CCN(CC(=O)O)CCN(CC(=O)O)CCN(CC(=O)O)CC2)CSCc2cccc(n2)CSC[C@@H](C(N)=O)NC1=O [GIP-125, DOTA-Asp-Trp-5Clw-Hyp-Glu-leu-[Cys(2Lut)-Thp-Leu-Ile-Cys]-NH2] ({DOTA}-DW[Trp(5-Cl)][Hyp]E[dL]C[Thp]LIC-NH2; linker 7-11 via Pyridine(2,6-diCH2)) | < 10
CC[C@H](C)[C@@H]1NC(=O)[C@H](CC(C)C)NC(=O)C(C)(C)NC(=O)[C@@H](NC(=O)[C@H](CC(C)C)NC(=O)[C@H](CCC(=O)O)NC(=O)[C@@H]2CCCN2C(=O)[C@H](Cc2c[nH]c3ccccc23)NC(=O)[C@H](Cc2c[nH]c3ccccc23)NC(=O)[C@H](CC(=O)O)N(C)C(=O)CCC(=O)NCCCOCCOCCOCCCNC(=O)CN2CCN(CC(=O)O)CCN(CC(=O)O)CCN(CC(=O)O)CC2)CSCc2cccc(c2)CSCCNC1=O [GIP-130, DOTA-Ttds-Nmd-Trp-Trp-Pro-Glu-Leu-[Cys(3MeBn)-Aib-Leu-Ile-AET]] ({X3-Suc}-[NMeD]WWPELC[Aib]LI; linker 7-C via X7) | 10 to 79.4
CC[C@H](C)[C@@H]1NC(=O)[C@H](CC(C)C)NC(=O)C(C)(C)NC(=O)[C@@H](NC(=O)[C@H](CC(C)C)NC(=O)[C@H](CCC(=O)O)NC(=O)[C@@H]2CCCN2C(=O)[C@H](Cc2c[nH]c3ccccc23)NC(=O)[C@H](Cc2c[nH]c3ccccc23)NC(=O)[C@H](CC(=O)O)NC(C)=O)CSCc2cccc(c2)CSC[C@@H](C(=O)NCCCOCCOCCOCCCNC(=O)CCC(=O)N[C@@H](CCCCNC(=O)CN2CCN(CC(=O)O)CCN(CC(=O)O)CCN(CC(=O)O)CC2)C(N)=O)NC1=O [GIP-131, Ac-Asp-Trp-Trp-Pro-Glu-Leu-[Cys(3MeBn)-Aib-Leu-Ile-Cys]-Ttds-Lys(DOTA)-NH2] (Ac-DWWPELC[Aib]LIC-X5; linker 7-11 via mXylylene) | 10 to 79.4
